This note sets out measurements from patent US20180155344A1, “TRICYCLIC PIPERIDINE COMPOUNDS” (ACTELION PHARMACEUTICALS LTD, priority 2015, published 2018).

Counter-ions that a name gives are not always drawn.

The experiment concerns the target T1, human TPH1 (Homo sapiens, UniProt P17752).
T1 sequence (P17752 1-444): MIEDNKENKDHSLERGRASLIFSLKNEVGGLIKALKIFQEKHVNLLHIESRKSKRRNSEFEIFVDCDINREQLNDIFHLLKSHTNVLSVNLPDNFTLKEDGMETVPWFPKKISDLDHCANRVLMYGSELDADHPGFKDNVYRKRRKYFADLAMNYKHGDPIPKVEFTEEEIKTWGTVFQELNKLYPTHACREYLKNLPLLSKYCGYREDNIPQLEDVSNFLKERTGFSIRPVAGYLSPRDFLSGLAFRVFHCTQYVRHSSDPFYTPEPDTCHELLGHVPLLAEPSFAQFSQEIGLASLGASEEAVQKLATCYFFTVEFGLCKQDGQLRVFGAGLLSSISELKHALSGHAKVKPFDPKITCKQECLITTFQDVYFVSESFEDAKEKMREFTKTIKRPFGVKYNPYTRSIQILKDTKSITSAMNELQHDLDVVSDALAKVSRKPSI
As to the kind of experiment: biochemical. From the text:
Biochemical In Vitro Assay Using Fluorescence Readout
To generate the enzyme, full length human TPH1 is cloned into the plasmid pET20b(+) (Novagen) and expressed in E. coli. The bacterial cells are ruptured by sonication on ice and the lysate is cleared by centrifugation. The resulting protein in the pellet is re-extracted and TPH1 is purified from the obtained lysate by affinity chromatography using a pterin cosubstrate analog immobilized to the resin of the column. The protein is further purified by size exclusion chromatography to remove protein aggregates. The activity of TPH1 is determined by using a fluorescence assay. The enzyme activity assay is carried out at 15° C. with atmosphere oxygen for the duration of 60 minutes in a volume of 64 μl. The reaction is carried out in a 0.1 M Tris-HCl buffer, adjusted to pH 7.6, containing 1 mM DTT, 0.2 mg/mL catalase, 100 μM (±)-6-methyl-5,6,7,8-tetrahydropterine dihydrochloride, 40 μM L-tryptophan, and 40-80 nM of TPH1. The reaction is started by bringing together L-tryptophan with all the other reaction substituents and stopped by quenching with perchloric acid (HClO4). The amount of 5-hydroxy-L-tryptophan produced during the enzymatic reaction is determined by fluorescence readout. Fluorescence, as determined at 540 nm when excited at 300 nm wavelength, increases proportionally to the 5-hydroxy-L-tryptophan formed. Compounds are prepared as 10 mM stock solution in DMSO, then diluted in 384-well plates using DMSO followed by a transfer of the dilutions into the assay plate. Fluorescence is measured for each well and the fluorescence at 540 nm wavelength is compared to the fluorescence of the vehicle in place of compound. […] The calculated IC50 values may fluctuate depending on the daily biochemical assay performance. Fluctuations of this kind are known to those skilled in the art.
The molecule `O=C(COc1ccc(N2CCOCC2)nc1Cl)N1CCc2nc3ccccn3c2C1c1ccc(Cl)cc1F` (stereo not shown) [Example 1.4.5, 1-(1-(4-chloro-2-fluorophenyl)-3,4-dihydroimidazo[1,2-a:5,4-c′]dipyridin-2(1H)-yl)-2-((2-chloro-6-morpholinopyridin-3-yl)oxy)ethan-1-one] showed an IC50 of 5 nM.
The molecule `O=C(COc1ccc(CN2CCOCC2)cc1Cl)N1CCc2nc3cc(C(F)(F)F)ccn3c2C1c1ncc2ccccn12` (stereo not shown) [Example 3.43.1, 2-(2-chloro-4-(morpholinomethyl)phenoxy)-1-(1-(imidazo[1,5-a]pyridin-3-yl)-7-(trifluoromethyl)-3,4-dihydroimidazo[1,2-a:5,4-c′]dipyridin-2(1H)-yl)ethan-1-one] had a half-maximal inhibitory concentration (IC50) of 130 nM.
With `COc1ccc(C2c3c(nc4cc(C(F)(F)F)ccn34)CCN2C(=O)COc2cnccc2Cl)cc1OC` (stereo not shown) [Example 3.1.18], the IC50 worked out at 235 nM.
The molecule `O=C(COc1ccc(CN2CCOCC2)cc1Cl)N1CCc2nc3cc(C(F)(F)F)ccn3c2C1c1ccnc(Cl)c1` (stereo not shown) [Example 3.56.2, 2-(2-chloro-4-(morpholinomethyl)phenoxy)-1-(1-(2-chloropyridin-4-yl)-7-(trifluoromethyl)-3,4-dihydroimidazo[1,2-a:5,4-c′]dipyridin-2(1H)-yl)ethan-1-one] showed an IC50 of 295 nM.
As for `COc1cc(F)c(C2c3c(nc4cc(C(F)(F)F)ccn34)CCN2C(=O)COc2ccc(CN3CCOCC3)cc2Cl)cc1OC` (stereo not shown) [Example 3.18.2, 2-(2-chloro-4-(morpholinomethyl)phenoxy)-1-(1-(2-fluoro-4,5-dimethoxyphenyl)-7-(trifluoromethyl)-3,4-dihydroimidazo[1,2-a:5,4-c′]dipyridin-2(1H)-yl)ethan-1-one], half-maximal inhibition (IC50) was put at 5 nM.
Turning to `Cc1ccc(C2c3c(nc4cc(C(F)(F)F)ccn34)CCN2C(=O)COc2ccc(CN3CCOCC3)cc2Cl)nc1` (stereo not shown) [Example 3.50.2, 2-(2-chloro-4-(morpholinomethyl)phenoxy)-1-(1-(5-methylpyridin-2-yl)-7-(trifluoromethyl)-3,4-dihydroimidazo[1,2-a:5,4-c′]dipyridin-2(1H)-yl)ethan-1-one], inhibition was half-maximal at 100 nM (IC50).
In turn, `COc1ccc(C2c3c(nc4cc(C(F)(F)F)ccn34)CCN2C(=O)COc2ccc(C(F)(F)F)cc2Cl)cc1OC` (stereo not shown) [Example 3.1.3, 2-(2-chloro-4-(trifluoromethyl)phenoxy)-1-(1-(3,4-dimethoxyphenyl)-7-(trifluoromethyl)-3,4-dihydroimidazo[1,2-a:5,4-c′]dipyridin-2(1H)-yl)ethan-1-one] came in with an IC50 of 36 nM.
Molecule `CCc1cc2nc3c(n2cc1C)C(c1ccc(OC)c(OC)c1)N(C(=O)COc1ccc2ccccc2c1C)CC3` (stereo not shown) [Example 6.1.4, 1-(1-(3,4-dimethoxyphenyl)-7-ethyl-8-methyl-3,4-dihydroimidazo[1,2-a:5,4-c′]dipyridin-2(1H)-yl)-2-((1-methylnaphthalen-2-yl)oxy)ethan-1-one hydrochloride] yielded an IC50 of 8 nM.
In the case of `CS(=O)(=O)c1ccc(OCC(=O)N2CCc3nc4ccccn4c3C2c2ccc(Cl)cc2F)c(Cl)n1` (stereo not shown) [Example 1.4.14, 1-(1-(4-chloro-2-fluorophenyl)-3,4-dihydroimidazo[1,2-a:5,4-c′]dipyridin-2(1H)-yl)-2-((2-chloro-6-(methylsulfonyl)pyridin-3-yl)oxy)ethan-1-one] it was 287 nM; in that of `Cc1cc(C2c3c(nc4cc(C(F)(F)F)ccn34)CCN2C(=O)COc2ccc3ccccc3c2)ccc1F` (stereo not shown) [Example 3.33.1, 1-(1-(4-fluoro-3-methylphenyl)-7-(trifluoromethyl)-3,4-dihydroimidazo[1,2-a:5,4-c′]dipyridin-2(1H)-yl)-2-(naphthalen-2-yloxy)ethan-1-one], 127 nM; in that of `O=C(COc1ccc2ccccc2c1)N1CCc2nc3cc(C(F)(F)F)ccn3c2C1c1ccc(Cl)cc1` (stereo not shown) [Example 3.30.1, 1-(1-(4-chlorophenyl)-7-(trifluoromethyl)-3,4-dihydroimidazo[1,2-a:5,4-c′]dipyridin-2(1H)-yl)-2-(naphthalen-2-yloxy)ethan-1-one], 59 nM.
`COc1ccc(C2c3c(nc4cc(C(F)(F)F)ccn34)CCN2C(=O)COc2cc(-c3ccccc3)nn2C)cc1OC` (stereo not shown) [Example 3.1.24] had a half-inhibitory concentration (IC50) of 157 nM.
The molecule `CCc1cc2nc3c(n2cc1C)C(c1ccc(OC)c(OC)c1)N(C(=O)COc1ccc(Cl)cc1Cl)CC3` (stereo not shown) [Example 6.1.1, 2-(2,4-dichlorophenoxy)-1-(1-(3,4-dimethoxyphenyl)-7-ethyl-8-methyl-3,4-dihydroimidazo[1,2-a:5,4-c′]dipyridin-2(1H)-yl)ethan-1-one] showed an IC50 of 16 nM.
Regarding `CC(C)c1noc(C2c3c(nc4cc(Cl)ccn34)CCN2C(=O)COc2ccc(N3CCOCC3)nc2Cl)n1` (stereo not shown) [Example 2.6.1, 1-(7-chloro-1-(3-isopropyl-1,2,4-oxadiazol-5-yl)-3,4-dihydroimidazo[1,2-a:5,4-c′]dipyridin-2(1H)-yl)-2-((2-chloro-6-morpholinopyridin-3-yl)oxy)ethan-1-one], the IC50 amounted to 225 nM.
The molecule `CCc1nc(C)ccc1OCC(=O)N1CCc2nc3cc(C(F)(F)F)ccn3c2C1c1ccc(C2CC2)cc1F` (stereo not shown) [Example 3.5.1, 1-(1-(4-cyclopropyl-2-fluorophenyl)-7-(trifluoromethyl)-3,4-dihydroimidazo[1,2-a:5,4-c′]dipyridin-2(1H)-yl)-2-((2-ethyl-6-methylpyridin-3-yl)oxy)ethan-1-one] came in with an IC50 of 11 nM.
In turn, `COc1ccc(COc2cc(C3c4c(nc5cc(Cl)ccn45)CCN3C(=O)COc3ccc4ccccc4c3)ccc2OC)cc1` (stereo not shown) [Example 2.7.1, 1-(7-chloro-1-(4-methoxy-3-((4-methoxybenzyl)oxy)phenyl)-3,4-dihydroimidazo[1,2-a:5,4-c′]dipyridin-2(1H)-yl)-2-(naphthalen-2-yloxy)ethan-1-one] displayed an IC50 of 60 nM.
In the case of `COCCOc1ccc(C2c3c(nc4ccccn34)CCN2C(=O)COc2ccc(C(=O)NC3CC3)nc2Cl)c(F)c1` (stereo not shown) [Example 1.21.1, 6-chloro-N-cyclopropyl-5-(2-(1-(2-fluoro-4-(2-methoxyethoxy)phenyl)-3,4-dihydroimidazo[1,2-a:5,4-c′]dipyridin-2(1H)-yl)-2-oxoethoxy)picolinamide] it was 54 nM; in that of `COc1ccc(C2c3c(nc4cc(C(F)(F)F)ccn34)CCN2C(=O)COc2ccc3c(c2C)CCNC3)c(F)c1` (stereo not shown) [Example 3.3.5, 1-(1-(2-fluoro-4-methoxyphenyl)-7-(trifluoromethyl)-3,4-dihydroimidazo[1,2-a:5,4-c′]dipyridin-2(1H)-yl)-2-((5-methyl-1,2,3,4-tetrahydroisoquinolin-6-yl)oxy)ethan-1-one], 217 nM; in that of `Cc1nc(N(C)C)ccc1OCC(=O)N1CCc2nc3ccccn3c2C1c1ccc(C2CC2)cc1F` (stereo not shown) [Example 1.5.3, 1-(1-(4-cyclopropyl-2-fluorophenyl)-3,4-dihydroimidazo[1,2-a:5,4-c′]dipyridin-2(1H)-yl)-2-((6-(dimethylamino)-2-methylpyridin-3-yl)oxy)ethan-1-one], 42 nM.
Take `O=C(COc1ccc(N2CCOCC2)nc1Cl)N1CCc2nc3ccccn3c2C1c1ccc(C2CC2)cc1F` (stereo not shown) [Example 1.5.2, 2-((2-chloro-6-morpholinopyridin-3-yl)oxy)-1-(1-(4-cyclopropyl-2-fluorophenyl)-3,4-dihydroimidazo[1,2-a:5,4-c′]dipyridin-2(1H)-yl)ethan-1-one]: the midpoint of inhibition, the IC50, lay at 6 nM.
Then `Cc1ccc(C2c3c(nc4cc(C(F)(F)F)ccn34)CCN2C(=O)COc2ccc(CN3CCOCC3)cc2Cl)cc1C` (stereo not shown) [Example 3.10.2, 2-(2-chloro-4-(morpholinomethyl)phenoxy)-1-(1-(3,4-dimethylphenyl)-7-(trifluoromethyl)-3,4-dihydroimidazo[1,2-a:5,4-c′]dipyridin-2(1H)-yl)ethan-1-one], with 23 nM; and `COCCN(C)c1ccc(OCC(=O)N2CCc3nc4ccccn4c3C2c2ccc(Cl)cc2F)c(Cl)n1` (stereo not shown) [Example 1.4.8, 1-(1-(4-chloro-2-fluorophenyl)-3,4-dihydroimidazo[1,2-a:5,4-c′]dipyridin-2(1H)-yl)-2-((2-chloro-6-((2-methoxyethyl)(methyl)amino)pyridin-3-yl)oxy)ethan-1-one], with 39 nM.
